The text below walks through data of PubChem BioAssay (NCI).

Where “and” joins values, the source holds several entries; their conditions need not be identical. Equal entries are not always repeated.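 Values below derive from 48-hour exposures of cells grown in 96-well plates, with endpoints linearly interpolated between the two concentrations bracketing the appropriate inhibition level. The concentration for 50% growth inhibition is given as GI50. Definition used: TGI = concentration required for complete inhibition of growth.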 Bounds are passed on as bounds.

The test system of one experiment is OVCAR-3 ovarian. Description: NCI anticancer screen, dose series, 48 h.
With `CC1(C)C(=O)/C=C\C(=O)C(C)(C)C2=CC=C(O2)C(C)(C)C(=O)/C=C\C(=O)C(C)(C)C2=CC=C1O2`, the TGI was greater than 100 µM.

In turn, `Cc1cc(NS(=O)(=O)c2ccc(Nc3c4ccccc4nc4c(C(=O)N5CCN(CCOS(C)(=O)=O)CC5)cccc34)cc2)no1` came in with a TGI greater than 100 µM.

`O=C(O)CCC(NC(=O)c1ccc(Nc2nc3ccccc3nc2-c2cccs2)cc1)C(=O)O` (centres undefined) gave a TGI greater than 100 µM.

With `COc1cc2ccnc([C@@H](OC(=O)c3ccccc3)c3ccc(OC)c(OC)c3OC)c2cc1OC`, the TGI was greater than 100 µM.

Consider `COc1cnc2c(c1)C(=O)c1c-2n(CCCN2CCOCC2)c(=O)c2cc(F)ccc12`, for which the GI50 is 0.25 µM and the TGI turned out to be 2.37 µM.

The compound `CCn1c(C)nn2c(=O)c3ccccc3nc2c1=O` yielded a TGI greater than 100 µM.

`COC(=O)/C(C#N)=C1\NC(=O)c2ccccc21` showed a TGI greater than 100 µM.

Compound `O=C(O)CCNCCCNCCC(=O)O` came in with a TGI greater than 100 µM.

The compound `NC1=NCCC1(c1ccccc1)c1ccccn1` (centres undefined) gave a TGI greater than 100 µM.

As to `CCCCCCCCCCCC(=O)OCCOCCOCCOCCOCCOCc1ccccc1`, the TGI was greater than 100 µM.

With `CCCCCCCCCCCCCC(=O)OC(/C=C/C(C)C)C(O)C(O)C(OC)C(=O)NC1CCCCN(C)C1=O` (centres undefined), the TGI was 8.03 µM and > 49 µM.

In turn, `CCOC(=O)CCC1(C(=O)OCC)CCCCC1=O` (centres undefined) showed a TGI greater than 100 µM.

In turn, `COC(=O)c1ccccc1NC(=O)C(=O)Cc1nc2c3c(ccc2[nH]c1=O)C(=O)c1ccccc1C3=O` came in with a TGI greater than 100 µM.

Compound `CCOC(=O)C(C)(C)Oc1ccc2c(-c3ccccc3)cc(=O)oc2c1` showed a TGI greater than 100 µM.

`CCCC1C(=O)CCc2c(OC)ccc(OC)c21` (centres undefined) showed a TGI greater than 100 µM.

In turn, `NC(=O)NO.O.O.O.O.O.O.O.O.O.O.O.[Ge].[Ge].[Ge].[Ge].[Ge].[O]=[Ge].[O]=[Ge].[O]=[Ge].[O]=[Ge].[O]=[Ge][OH]` returned a TGI greater than 100 µM.

Take `O=C(Nc1nc2ccc([N+](=O)[O-])cc2s1)C(=O)C(C1OC(=O)c2ccccc21)[N+](=O)[O-]` (centres undefined): the TGI is greater than 100 µM.

On to `CCC[CH2][Sn]([CH2]CCC)([S]c1cccc2cccnc12)[S]c1cccc2cccnc12`, for which the GI50 is 0.0703 µM and the TGI came to 0.228 µM.

The test system of a further experiment is UO-31 renal. The experiment is described as follows: NCI anticancer screen, dose series, 48 h.
Consider `CCN1CCN(Cc2ccc(NC(=O)c3cccc(C#Cc4cccc5[nH]nc(N)c45)c3)cc2C(F)(F)F)CC1`, for which the GI50 was 0.299 µM and the TGI came out at 1.28 µM.

For the compound `Cc1c(C(=O)CC(=O)C(=O)Nc2ccccc2C(F)(F)F)[n+](=O)c2ccccc2n1[O-]`, the TGI was greater than 100 µM.

`Cc1cc(N(CCC#N)CCC#N)ccc1N=Nc1ccc(S(N)(=O)=O)cc1` displayed a TGI greater than 100 µM.

`Cc1nc2c(ccc3ncccc32)[nH]1` registered a TGI greater than 100 µM.

Take `O=C(CCc1nc(=S)[nH][nH]1)Nc1cc(Cl)c(Cl)cc1Cl`: the TGI is greater than 100 µM.

Compound `CN(C)C(=S)N=C(Nc1ccccc1)Nc1ccccc1` registered a TGI greater than 100 µM.

In turn, `Nc1ccccc1S(=O)(=O)N(CC(=O)O)c1ccccc1` gave a TGI greater than 100 µM.

Compound `COc1ccccc1N1C(=O)C2c3[nH]c4ccccc4c3C3CCC(C(C)(C)C)CC3C2C1=O` (centres undefined) came in with a TGI greater than 100 µM.

`Cc1cc(NS(=O)(=O)c2ccc(Nc3c4ccccc4nc4c(C(=O)N5CCN(CCOS(C)(=O)=O)CC5)cccc34)cc2)no1` came in with a TGI greater than 100 µM.

The compound `O=C(O)CCC(NC(=O)c1ccc(Nc2nc3ccccc3nc2-c2cccs2)cc1)C(=O)O` (centres undefined) registered a TGI greater than 100 µM.

In turn, `COc1cc2ccnc([C@@H](OC(=O)c3ccccc3)c3ccc(OC)c(OC)c3OC)c2cc1OC` registered a TGI of 76.3 µM.

As to `COC(=O)/C(C#N)=C1\NC(=O)c2ccccc21`, the TGI is greater than 100 µM.

For the compound `CC(=O)[CH-]C(=O)c1ccccc1.CC(=O)[CH-]C(=O)c1ccccc1.CN(C)c1ccc([O-])cc1.CN(C)c1ccc([O-])cc1.Cl.[Ti+4]`, the GI50 was 17.9 µM and the TGI is greater than 31.6 µM.

`CCCCCCCCCCCC(=O)OCCOCCOCCOCCOCCOCc1ccccc1` yielded a TGI greater than 100 µM.

In the case of `CCCCCCCCCCCCCC(=O)OC(/C=C/C(C)C)C(O)C(O)C(OC)C(=O)NC1CCCCN(C)C1=O` (centres undefined), the GI50 was greater than 49 µM; the TGI was 5.25 µM and > 49 µM.

`CCOC(=O)CCC1(C(=O)OCC)CCCCC1=O` (centres undefined) yielded a TGI greater than 100 µM.

In turn, `COC(=O)c1ccccc1NC(=O)C(=O)Cc1nc2c3c(ccc2[nH]c1=O)C(=O)c1ccccc1C3=O` yielded a TGI greater than 100 µM.

On to `CCOC(=O)C(C)(C)Oc1ccc2c(-c3ccccc3)cc(=O)oc2c1`, for which the TGI was 76 µM.

For `CCCC1C(=O)CCc2c(OC)ccc(OC)c21` (centres undefined), the TGI is greater than 100 µM.

As to `NC(=O)NO.O.O.O.O.O.O.O.O.O.O.O.[Ge].[Ge].[Ge].[Ge].[Ge].[O]=[Ge].[O]=[Ge].[O]=[Ge].[O]=[Ge].[O]=[Ge][OH]`, the TGI is greater than 100 µM.

On to `O=C(Nc1nc2ccc([N+](=O)[O-])cc2s1)C(=O)C(C1OC(=O)c2ccccc21)[N+](=O)[O-]` (centres undefined), for which the TGI came to 94.4 µM.

Turning to `CCC[CH2][Sn]([CH2]CCC)([S]c1cccc2cccnc12)[S]c1cccc2cccnc12`, the GI50 was 0.189 µM and the TGI is 0.345 µM.

In the next experiment the test system is IGROV1 ovarian. The experiment is described as follows: NCI anticancer screen, dose series, 48 h.
As for `CCN1CCN(Cc2ccc(NC(=O)c3cccc(C#Cc4cccc5[nH]nc(N)c45)c3)cc2C(F)(F)F)CC1`, the GI50 is 0.0681 µM and the TGI came to 0.717 µM.

Regarding `Cc1c(C(=O)CC(=O)C(=O)Nc2ccccc2C(F)(F)F)[n+](=O)c2ccccc2n1[O-]`, the TGI was found to be 47.5 µM.

The compound `Cc1cc(N(CCC#N)CCC#N)ccc1N=Nc1ccc(S(N)(=O)=O)cc1` showed a TGI greater than 100 µM.

`Cc1nc2c(ccc3ncccc32)[nH]1` displayed a TGI greater than 100 µM.

For the compound `C1=C2/CC[C@H](Sc3ccccc3)C2C2(CCCCC/1)OCCO2` (some centres undefined), the TGI was greater than 100 µM.

`O=C(CCc1nc(=S)[nH][nH]1)Nc1cc(Cl)c(Cl)cc1Cl` returned a TGI greater than 100 µM.

In turn, `CN(C)C(=S)N=C(Nc1ccccc1)Nc1ccccc1` displayed a TGI greater than 100 µM.

`Nc1ccccc1S(=O)(=O)N(CC(=O)O)c1ccccc1` registered a TGI greater than 100 µM.

In turn, `CC1(C)C(=O)/C=C\C(=O)C(C)(C)C2=CC=C(O2)C(C)(C)C(=O)/C=C\C(=O)C(C)(C)C2=CC=C1O2` showed a TGI greater than 100 µM.

Consider `COc1ccccc1N1C(=O)C2c3[nH]c4ccccc4c3C3CCC(C(C)(C)C)CC3C2C1=O` (centres undefined), for which the TGI is greater than 100 µM.

Take `Cc1cc(NS(=O)(=O)c2ccc(Nc3c4ccccc4nc4c(C(=O)N5CCN(CCOS(C)(=O)=O)CC5)cccc34)cc2)no1`: the TGI was greater than 100 µM.

For `O=C(O)CCC(NC(=O)c1ccc(Nc2nc3ccccc3nc2-c2cccs2)cc1)C(=O)O` (centres undefined), the TGI is greater than 100 µM.

`COc1cc2ccnc([C@@H](OC(=O)c3ccccc3)c3ccc(OC)c(OC)c3OC)c2cc1OC`: the TGI was greater than 100 µM.

As to `COc1cnc2c(c1)C(=O)c1c-2n(CCCN2CCOCC2)c(=O)c2cc(F)ccc12`, the GI50 is 0.354 µM and the TGI is greater than 100 µM.

With `CCn1c(C)nn2c(=O)c3ccccc3nc2c1=O`, the TGI is greater than 100 µM.

`COC(=O)/C(C#N)=C1\NC(=O)c2ccccc21` registered a TGI greater than 100 µM.
